# Like-named read-outs stand apart in the source and are kept apart here.
# Key:
# [1] = doses of between 10 mg and 80 mg; previous studies; cited from earlier work
# [2] = recent studies; versus omeprazole, lansoprazole and other PPIs; cited from earlier work
# [3] = test system: ligature of the pylorus in the rat (gastric secretions); experiment: model of ligature of the pylorus in the rat: volume and pH of gastric secretion; type: in vivo; details: for pharmacological effect 10 h after treatment administration: pylorus ligature, as compared to the control group
# Procedure: In vivo Studies in Rats: Assessment of Volume and pH of Gastric Secretion. Studies conducted by the applicant in vivo in a model of ligature of the pylorus in the rat have investigated the pharmacological effects of the (−) and (+) isomers of tenatoprazole. In this well established and validated model, animals are pre-treated at different time points (10, 16 and 20 h) before ligature of the pylorus, and the volume and pH of the gastric secretions are measured 4 h after the ligature.
# [4] = test system: intragastric pH in dogs; experiment: antisecretory effect in dogs: intragastric pH over 24 h; type: in vivo; details: for % of holding time for 24 hours pH > 3 / % of holding time for 24 hours pH > 4: 10 mg/kg/day
# Procedure: In vivo Studies in Dogs: Assessment of the Antisecretory Effect. Studies conducted by the applicant in vivo in dogs have investigated the antisecretory effect of the (−) isomer of tenatoprazole and the (+) isomer, by measuring the intragastric pH after treatment administration for 6 days (10 mg/kg/day). The profile of intragastric pH during a 24-hour period was recorded on the first two days of administration, on the 6th day, and two days after treatment termination. These pH values were compared to those measured at baseline, prior to treatment administration. The results corresponding to the pH>3 and pH>4 holding time for 24 h, expressed in percent, are described below: […]
# [5] = biological target: CYP2C19 (Homo sapiens, UniProt P33261); experiment: in vitro metabolism by cytochrome: maximal rate of metabolism (Vmax); type: in vitro ADME; details: for Vmax (maximal rate of metabolism): in vitro
# Source text: Vmax (−) is the value of Vmax of the (−) enantiomer of tenatoprazole.
# [6] = test system: cytochromes CYP3A4 and CYP2C19; experiment: cytochromes that intervene in the metabolism of tenatoprazole; type: in vitro ADME
# Source text: Further, it has been shown that different cytochromes intervene in the metabolism of tenatoprazole.
# [7] = analysis of plasma enantiomers in subjects by CYP2C19 genotype; type: in vivo, human; details: for enantiomer in plasma: CYP2C19*2/*2 genotype, weak activity of cytochrome CYP2C19, slow metabolisers; for enantiomer in plasma (concentration): CYP2C19*1/*1 genotype, normal activity of cytochrome CYP2C19, rapid metabolisers
# Source text: More particularly, the unexpected pharmacokinetic properties of the (−) enantiomer of tenatoprazole were discovered during an extensive program of pharmacokinetic and metabolism studies in vitro and in vivo.
# The homozygous subjects have a very weak metabolic activity of the cytochrome CYP2C19 which is responsible for the metabolism of tenatoprazole. […] These subjects are qualified as “slow metabolisers”.
# [8] = pharmacokinetic study in Caucasian subjects, acute and repeated administration (7 days) of tenatoprazole; type: in vivo, human
# Procedure: In order to assess the difference in pharmacokinetic characteristics between the (−) enantiomer of the invention and the (+) enantiomer, a pharamcokinetic study was conducted.
# Said study was carried out in Caucasian subjects, after an acute and repeated administration (7 days) of tenatoprazole. […] In contrast, it was observed that the evolution of the plasma concentration of the (+) isomer is not linear, and thus not predictive of the efficacy and the tolerability of the drug.
# [9] = elimination half-life in slow metabolisers; type: in vivo, human; details: slow metabolisers (deficient in CYP2C19 activity)
# Procedure: In another study, it was assessed that the elimination half-life of the (−) isomer of tenatoprazole is approximately 4 times shorter than that of the (+) isomer in slow metabolisers (which are deficient in CYP2C 19 activity), as summarised in the following table: […]
# [10] = test system: ulcerative lesions in rats; experiment: onset of healing and normalisation of histological changes of ulcerative lesions in rats; type: in vivo
# Source text: In vivo Studies in Rats: Assessment of the Onset of Healing and the Increase of Normalisation of Histological Changes of the Lesions. […] Thus, the effect observed with the (−) enantiomer of tenatoprazole appeared 1 day before those of the (+) enantiomer. […] These changes consisted in a reduction of the ultrastructural damage resulting in a complete morphological recovery of the oesophageal epithelium.
# [11] = in vivo pharmacokinetic and metabolism study in dogs
# [12] = mean plasma half-life at doses between 10 mg and 80 mg; type: in vivo; details: human, doses of between 10 mg and 80 mg
# Procedure: In contrast, previous studies have shown that the racemic mixture has a mean plasma half-life of approximately 7 hours at this range of doses
# [13] = 10 h after treatment administration, gastric secretions measured 4 h after the ligature
# [14] = after 7 days of treatment with tenatoprazole
# CYP2C19, sequence (P33261 whole entry): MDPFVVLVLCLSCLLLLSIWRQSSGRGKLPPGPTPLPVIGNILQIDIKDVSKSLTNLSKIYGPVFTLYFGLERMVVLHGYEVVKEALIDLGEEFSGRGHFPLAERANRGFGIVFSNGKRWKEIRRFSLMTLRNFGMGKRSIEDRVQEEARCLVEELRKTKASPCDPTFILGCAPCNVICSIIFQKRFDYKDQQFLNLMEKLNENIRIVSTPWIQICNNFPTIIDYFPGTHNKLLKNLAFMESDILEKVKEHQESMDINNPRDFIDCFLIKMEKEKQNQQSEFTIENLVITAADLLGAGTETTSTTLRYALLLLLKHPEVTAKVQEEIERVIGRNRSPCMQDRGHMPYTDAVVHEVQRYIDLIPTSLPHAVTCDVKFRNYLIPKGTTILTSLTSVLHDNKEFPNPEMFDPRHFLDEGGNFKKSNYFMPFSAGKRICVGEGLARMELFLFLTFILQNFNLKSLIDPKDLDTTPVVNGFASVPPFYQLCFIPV
structure (smiles),measurement,setting,value
"COc1ccc2[nH]c([S+]([O-])Cc3ncc(C)c(OC)c3C)nc2n1 (racemic) [racemic mixture, 5-methoxy-2-[[(4-methoxy-3,5-dimethyl-2-pyridyl)methyl]sulfinyl]imidazo[4,5-b]pyridine]",mean plasma half-life,[1],approximately 7 hours
same,half-life in plasma compared with the other PPIs,[2],approximately seven times longer
"COc1ccc2[nH]c([S@+]([O-])Cc3ncc(C)c(OC)c3C)nc2n1 (single isomer, unassigned) [(+) isomer, reference compound]","Free acid (gastric acidity, change as compared to the control group)",[3]; [13],−30%
same,pH (change as compared to the control group),[3]; [13],+30%
same,pharmacological effect 10 h after treatment administration,[3],no longer significant
same,inhibition of gastric secretion,[4]; 10 mg/kg/day for 6 days,inhibit gastric secretion
same,Vmax (maximal rate of metabolism),[5],12.63 pmol/min per pmol of cytochrome
same,cytochromes via which the enantiomer is metabolised,[6],"mainly the CYP2C19 and, to a lesser extent, by CYP3A4"
same,enantiomer in plasma,[7]; listed as (+) Enantiomer,Increased
same,enantiomer in plasma,[7]; listed as (+) enantiomer,highly significant increase
same,plasma concentration versus dose,[8]; [14],not linear
same,T1/2 (elimination half-life),[9],36.7 ± 4.5 h
"COc1ccc2[nH]c([S+]([O-])Cc3ncc(C)c(OC)c3C)nc2n1 (single isomer, unassigned; (-)) [(−) isomer, (−)-5-methoxy-2-[[(4-methoxy-3,5-dimethyl-2-pyridyl)methyl]sulfinyl]imidazo[4,5-b]pyridine]",pharmacological effect 10 h after treatment administration,[3],remains pharmacologically active
same,inhibition of gastric secretion,[4]; 10 mg/kg/day for 6 days,inhibit gastric secretion
same,time over which a significant effect is observed,"[4]; 10 mg/kg/day for 6 days, compared to baseline","from the first day of administration, and is maintained until two days after treatment termination"
same,% of holding time for 24 hours pH > 3,[4]; 1st day of treatment,73%
same,% of holding time for 24 hours pH > 4,[4]; 1st day of treatment,55%
same,% of holding time for 24 hours pH > 3,[4]; 2nd day of treatment,82%
same,% of holding time for 24 hours pH > 4,[4]; 2nd day of treatment,75%
same,% of holding time for 24 hours pH > 3,[4]; 6th day of treatment,93%
same,% of holding time for 24 hours pH > 4,[4]; 6th day of treatment,75%
same,quality of healing (normalization of histological changes),[10],significant increase
same,onset of healing of ulcerative lesions,[10]; as compared with the (+) enantiomer,significantly improved
same,appearance of the effect before that of the (+) enantiomer,[10]; healing of ulcerative lesions,1 days
same,metabolised more slowly than the (+) enantiomer,[5]; from Vmax values,approximately 7 times
same,Vmax (maximal rate of metabolism),[5],1.90 pmol/min per pmol of cytochrome
same,cytochromes via which the enantiomer is metabolised,"[6]; human, cytochromes (CYP3A4, CYP2C19) in vitro",mainly metabolised via the cytochrome CYP3A4
same,enantiomer in plasma (concentration),[7]; listed as (−) Enantiomer,Increased
same,enantiomer in plasma (concentration),[7]; listed as (−) enantiomer,higher than that of the (+) enantiomer
same,half-life in comparison with the (+) enantiomer,[11],significantly longer
same,AUC versus dose,[8]; [14],linear with the dose
same,plasma concentration versus dose,[8]; [14],linear with the dose
same,between-subject variability of pharmacokinetic parameters,[8]; compared to the (+) isomer,markedly lower
same,half-life,"[9]; human, in vivo, read-out: T1/2 (elimination half-life) (converted)",9.7 ± 0.9 h
same,elimination half-life shorter than that of the (+) isomer,[9],approximately 4 times
same,half-life,[12],10 to 12 h

# Reference: patent publication US7652034B2, “Enantiomer (-) of tenatoprazole and the therapeutic use thereof” (Sidem Pharma, priority 2004, dated 2010)
